Patent US12509482B2, “3′-ketoglycoside compound for the slow release of a volatile alcohol” (GLYCOSCIENCE, S.L., priority 2020, dated 2025)
Read-outs that look alike come from different tables or passages of the source. Values belong to the compound of their own block, whether it stands above or below them.

Tests used:
Type in all cases: physicochemical
[1] = Example 30: competitive release of alcohol from substrate stock solutions A-D (methyl-O-α-D-3′-ketoglucopyranoside, methyl-O-α-D-glucopyranoside, phenyl-O-β-D-3′-ketoglucopyranoside, phenyl-O-β-D-glucopyranoside, each with 4-nitrophenyl-O-β-D-glucopyranoside), 0.1 M phosphate buffer, 37° C., presence and absence of fresh skin wash; details: for alcohol release (in words): 37° C.
Excerpt: In this example, phenyl-O-β-D-3′-ketoglucopyranoside, methyl-O-α-D-3′-ketoglucopyranoside, phenyl-O-β-D-glucopyranoside, methyl-O-α-D-glucopyranoside and 4-nitrophenyl-O-β-D-glucopyranoside were used as model compounds to determine the rate of release of their respective alcohol rests under different conditions.
The competitive rate of release of methanol or phenol and 4-nitrophenol from a 1:1 stoichiometric mixture of (2R,5S,6S)-3,5-dihydroxy-2-(hydroxymethyl)-6-phenoxytetrahydro-4H-pyran-4-one (phenyl-O-β-D-3′-ketoglucopyranoside) or (2R,3R,5S,6S)-3,5-dihydroxy-2-(hydroxymethyl)-6-methoxytetrahydro-4H-pyran-4-one (methyl-O-α-D-3′ketoglucopyranoside) and their respective 0-glucopyranosides against (2R,3S,4S,5R,6S)-2-(hydroxymethyl)-6-(4-nitrophenoxy)tetrahydro-2H-pyran-3,4,5-triol (4-nitrophenyl-O-β-D-glucopyranoside) in 0.1 M deuterated phosphate buffer solutions at pH 5.7 and 7.0 containing 10% D6-DMSO at room temperature in the presence and absence of fresh skin washing solution was determined.
1 M Stock solutions of sodium dihydrogen phosphate and disodium hydrogen phosphate were prepared in deuterated water (D2O).
4-Nitrophenyl-O-β-D-glucopyranoside (50 mg) was dissolved in D6-DMSO (1 mL) and 0.2 mL of the resultant solution added to each of 10 mg of methyl-O-α-D-3′-ketoglucopyranoside, methyl-O-α-D-glucopyranoside, phenyl-O-β-D-3′-ketoglucopyranoside and phenyl-O-β-D-glucopyranoside to give substrate stock solutions A, B, C and D respectively.
In a typical experiment, a stock solution of fresh skin wash suspension was prepared by swabbing a 25 cm^2 area of cheek skin of a human volunteer by robustly rubbing the area with a cotton wool gauze (5×5 cm^2) soaked in D2O (12.5 mL) for 1 minute and then resuspending the gauze in the D2O solution, rapidly shaking and removing the gauze after squeezing out as much liquid as possible with a spatula.
1 M Stock solutions of phosphate buffer, pH 5.7 and 7.0 were prepared by appropriately mixing 1 M stock phosphate salts solutions to the correct pH as determined using a calibrated pH meter.
Half of each buffer stock solution was diluted ten times with D2O and the other with the above skin washing stock solution to give a 0.1 M phosphate buffer in D2O with a final pH of 5.7, 0.1 M phosphate buffer in D2O with a final pH of 7.0, a 0.1 M phosphate buffer in skin wash solution with a final pH of 5.7 and a 0.1 M phosphate buffer in skin wash solution with a final pH of 7.0.
To sixteen parallel reaction vials, was added 0.45 mL of low or high pH 0.1M phosphate buffer in D2O or 0.45 mL of low or high pH 0.1M phosphate buffer in skin wash solution followed by 0.05 mL of one of the glycoside substrate solutions in D6-DMSO and the mixtures incubated by shaking at 37° C. After times indicated in the table below, the mixtures where analysed by ^1H-NMR with 128 scans using a 400 MHz instrument and the colour observed visually, with the results shown in Table XVII: […]

[2] = Example 13: release of 4-nitrophenol from substrate A (4-nitrophenyl-O-β-D-3′-ketoglucopyranoside) vs substrate B (4-nitrophenyl-O-β-D-glucopyranoside), 0.1 M deuterated phosphate buffer or water, 10% D6-DMSO, room temperature; details: for 4-nitrophenol release (in words): varying solution pH, room temperature, 0.5 mL of aqueous solution; for composition by 1H-NMR (aromatic signals): approximately 26 h
Description: In this example, 4-nitrophenyl-O-β-D-3′-ketoglucopyranoside and 4-nitrophenyl-O-beta-D-glucopyranoside were used as model compounds to determine the rate of release of an aromatic alcohol (4-nitrophenol) under different conditions.
Rate of release of 4-nitrophenol from (2R,3R,5S,6S)-3,5-dihydroxy-2-(hydroxymethyl)-6-(4-nitrophenoxy)tetrahydro-4H-pyran-4-one (4-nitrophenyl-O-β-D-3′-ketoglucopyranoside) was determined in comparison to (2R,3S,4S,5R,6S)-2-(hydroxymethyl)-6-(4-nitrophenoxy)tetrahydro-2H-pyran-3,4,5-triol (para-nitrophenyl-O-β-D-glucopyranoside) in 0.1 M deuterated phosphate buffer solutions of differing pH containing 10% D6-DMSO or in water containing 10% D6-DMSO at room temperature.
1 M Stock solutions of sodium dihydrogen phosphate and disodium hydrogen phosphate were prepared in deuterated water (D2O). Stock solutions of 25 mg of 4-nitrophenyl-O-β-D-3′-ketoglucopyranoside (substrate A), 25 mg of 4-nitrophenyl-O-β-D-glucopyranoside (substrate B) in 0.5 mL of D6-DMSO were each prepared and a stock solution of 11 mg of 4-nitrophenol in the same volume of D6-DMSO for visual comparison.
Solutions of pH 4.5, 5.8, 7.4 and 9.5 were prepared by dilution of the appropriate individual or mixture of stock phosphate salt solutions to 0.1 M using a calibrated pH meter.
To ten parallel reaction vials was added 0.05 mL of one of the glycoside substrate stock solutions in D6-DMSO, 0.5 mL of the appropriate deuterated buffer solution or 0.5 mL of water were indicated in Table I below. The reaction vials were allowed to stand at room temperature and the colour of the solutions recorded by visual observation relative to the colour of authentic 4-nitrophenol solutions diluted in the same way, as shown in Table I:
After approximately 26 h, reactions 2 to 5 were all analysed by ^1H-NM R using 128 scans on a 400 MHz instrument.

[3] = Example 22: competitive release of para-nitrophenol from an approximately equimolar solution of 4-nitrophenyl-O-β-D- and -O-α-D-3′-ketoglucopyranoside, 32° C., 1H NMR integrals
Excerpt: In this example the competitive rate of release of para-nitrophenol from an approximately equimolar solution of (2R,5S,6S)-3,5-dihydroxy-2-(hydroxymethyl)-6-(4-nitrophenoxy)tetrahydro-4H-pyran-4-one (4-nitrophenyl-O-β-D-3′-ketoglucopyranoside) and (2R,5S,6S)-3,5-dihydroxy-2-(hydroxymethyl)-6-(4-nitrophenoxy)tetrahydro-4H-pyran-4-one (4-nitrophenyl-O-α-D-3′-ketoglucopyranoside) in D2O containing 1.5% D6-DMSO or in 0.1 M deuterated phosphate buffer, pH 5.8 containing 1.5% D6-DMSO or in D2O was determined.
A solution containing approximately 2 mg each of 4-nitrophenyl-O-β-D-3′-ketoglucopyranoside and 4-nitrophenyl-O-α-D-3′-ketoglucopyranoside was prepared in 1 mL of D2O containing 3.3% v/v D6-DMSO. To two 0.375 mL portions of the resultant solution was added either D2O (0.5 mL) or 0.1M sodium phosphate buffer, pH 5.8 (0.5 mL) to given reactions 1 and 2 respectively. The resultant mixtures were analysed by ^1H NMR directly following preparation then incubated at 32° C./80 rpm and periodically analysed by ^1H NMR at recorded time points.
The change in the ratio between the integrals of the anomeric protons of each ketoglucoside and between the were sum of the anomeric protons and the anomeric protons of each ketoglucoside with time are shown in Table IX: […]

[4] = Example 21: release of methanol from substrate A (methyl-O-α-D-3′-ketoglucopyranoside) vs substrate B (methyl-O-α-D-glucopyranoside), 0.1 M phosphate buffer or water, room temperature then 37° C.
Description: In this example, methyl-O-α-D-3′-ketoglucopyranoside and methyl-O-α-D-glucopyranoside were used as model compounds to determine the rate of release of an aliphatic alcohol (methanol) under different conditions.
1 M Stock solutions of sodium dihydrogen phosphate and disodium hydrogen phosphate were prepared in deuterated water (D2O). Stock solutions of 15 mg of methyl-O-α-D-3′-ketoglucopyranoside (substrate A) and methyl-O-α-D-glucopyranoside (substrate B) were each prepared by dissolving in 0.3 mL of D6-DMSO.
Solutions of pH 4.5, 5.8 and 7.4 were prepared by dilution of the appropriate individual or mixture of stock phosphate salt solutions to 0.1 M using a calibrated pH meter.
To eight parallel reaction vials was added 0.05 mL of one of the glycoside substrate solutions in D6-DMSO, 0.5 mL of the appropriate deuterated buffer solution or 0.5 mL of water were indicated in the table below and the mixtures analysed by ^1H-NMR with 128 scans using a 400 MHz instrument to give an initial time reading.
The mixtures were then analysed in the same way after allowing to stand at room temperature for a further 22 h.
The mixtures were then incubated by shaking at 37° C. for a further 44 h and analysed in the same way.

[5] = Description: alcohol release from model compounds (III), (IV) and compound (V) in buffer, water and skin washings; details: for phenol release (in words): after 60 h
[6] = pH 5.7, presence and absence of skin washing

phenol release (in words) ([5]; buffer alone): a small quantity of conjugate remained
phenol release (in words) ([5]; in the presence of skin washing): complete release of phenol
Compound: O=C1[C@@H](O)[C@H](Oc2ccccc2)O[C@H](CO)[C@H]1O [phenyl-O-β-D-3′-ketoglucopyranoside, (2R,5S,6S)-3,5-dihydroxy-2-(hydroxymethyl)-6-phenoxytetrahydro-4H-pyran-4-one]
alcohol release (in words) [1, 6]: reacts slower than at pH 7 and to the same extent in the presence and absence of skin washing

stability (in words) ([1]; pH 5.7): stable under all conditions tested
Compound: OC[C@H]1O[C@@H](Oc2ccccc2)[C@H](O)[C@@H](O)[C@@H]1O [phenyl-O-β-D-glucopyranoside]

Second part, the compound before the results:

Compound: O=[N+]([O-])c1ccc(O[C@@H]2O[C@H](CO)[C@@H](O)[C@H](O)[C@H]2O)cc1 [4-nitrophenyl-O-β-D-glucopyranoside, (2R,3S,4S,5R,6S)-2-(hydroxymethyl)-6-(4-nitrophenoxy)tetrahydro-2H-pyran-3,4,5-triol]
alcohol release (in words) ([1]; pH 7, presence and absence of skin washings): release some 4-nitrophenol visually at pH 7 and typically to a greater extent in the presence of skin washings, but to such a low extent that no change was observed by NMR
4-nitrophenol release (in words) [2]: releases virtually no 4-nitrophenol

Compound: O=C1[C@@H](O)[C@H](Oc2ccc([N+](=O)[O-])cc2)O[C@H](CO)[C@H]1O [(2R,5S,6S)-3,5-dihydroxy-2-(hydroxymethyl)-6-(4-nitrophenoxy)tetrahydro-4H-pyran-4-one]
ratio of the sum of aromatic/β-ketoglucoside proton integrals ([3]; Reaction 1, D2O, 0 h): 6.8
ratio of the sum of aromatic/β-ketoglucoside proton integrals ([3]; Reaction 1, D2O, 20 h): 8.3
ratio of the sum of aromatic/β-ketoglucoside proton integrals ([3]; Reaction 1, D2O, 45 h): 8.8
ratio of the sum of aromatic/β-ketoglucoside proton integrals ([3]; Reaction 1, D2O, 143 h): 8.3
ratio of the sum of aromatic/β-ketoglucoside proton integrals ([3]; Reaction 2, 0.1M sodium phosphate buffer, pH 5.8, 0 h): 6.6
ratio of the sum of aromatic/β-ketoglucoside proton integrals ([3]; Reaction 2, 0.1M sodium phosphate buffer, pH 5.8, 20 h): 7.2
ratio of the sum of aromatic/β-ketoglucoside proton integrals ([3]; Reaction 2, 0.1M sodium phosphate buffer, pH 5.8, 45 h): 9.7
ratio of the sum of aromatic/β-ketoglucoside proton integrals ([3]; Reaction 2, 0.1M sodium phosphate buffer, pH 5.8, 143 h): 10.6
composition by 1H-NMR (aromatic signals) ([2]; reaction 2, pH 4.5): only starting material
composition by 1H-NMR (aromatic signals) ([2]; reaction 3, pH 5.8): a mixture to starting material and 4-nitrophenol
composition by 1H-NMR (aromatic signals) ([2]; reaction 4, pH 7.4): almost entirely 4-nitrophenol with a trace of starting material
composition by 1H-NMR (aromatic signals) ([2]; reaction 5, pH 9.5): almost entirely 4-nitrophenol with a trace of starting material
4-nitrophenol release (in words) [2]: from no release at low pH to the delivery of μg quantities of 4-nitrophenol per minute

Compound: CO[C@H]1O[C@H](CO)[C@@H](O)C(=O)[C@H]1O [methyl-O-α-D-3′-ketoglucopyranoside, (2R,3R,5S,6S)-3,5-dihydroxy-2-(hydroxymethyl)-6-methoxytetrahydro-4H-pyran-4-one]
stability / methanol release (in words) ([4]; 37° C., pH range tested and water): stable at pH 4.5 and 5.8, but very slowly generates methanol at pH 7.4
methanol release (in words) ([5]; 0.1M sodium phosphate buffer in D2O, pH 7.0, 37° C., after 36 h): slowly liberates methanol
stability (in words) ([5]; deionised water, acidic pH): remained stable in deionised water and relatively stable at acidic pH
methanol release in the presence of skin washings (in words) ([5]; same temperature and pH (37° C., pH 7.0)): significantly more methanol than had been observed in buffer alone
alcohol release (in words) [1, 6]: no reaction is observed

Compound: CO[C@H]1O[C@H](CO)[C@@H](O)[C@H](O)[C@H]1O [methyl-O-α-D-glucopyranoside]
stability / methanol release (in words) [4]: remains stable over the pH range tested and in water
stability (in words) ([1]; all conditions tested (pH 5.7 and 7.0, with and without skin washing, 37° C.)): stable under all conditions tested
